For one cell line, relative viability results are on record in the supplement of paper PMC10307832.

What all share (experiment): relative viability (nuclei count vs DMSO), 5 days (fraction); higher = more cells survive
Compound in the assay “Obatoclax + AZD7762”: COC1=CC(c2cc3ccccc3[nH]2)=N/C1=C\c1[nH]c(C)cc1C [Obatoclax] + NC(=O)Nc1cc(-c2cccc(F)c2)sc1C(=O)N[C@H]1CCCNC1 [AZD7762] (partner 0.2 µM)
The method in brief: (§1)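 Each reported value is a median over duplicate plates. It expresses relative viability: treated-well nuclei count divided by vehicle-well nuclei count. Lung cancer cell lines in 1536-well plates were dosed by pin tool a day after seeding, alone with one drug or with a fixed anchor-drug dose plus five library-drug doses (not always all listed) in √10 steps, and nuclei were counted after 5 days.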

Compound in the assay “Bortezomib + Phenformin”: CC(C)C[C@H](NC(=O)[C@H](Cc1ccccc1)NC(=O)c1cnccn1)B(O)O [Bortezomib] + N=C(N)NC(=N)NCCc1ccccc1 [Phenformin] (partner 250 µM)
Summed up:
as §1

Compound in the assay “Obatoclax + Lapatinib”: COC1=CC(c2cc3ccccc3[nH]2)=N/C1=C\c1[nH]c(C)cc1C [Obatoclax] + CS(=O)(=O)CCNCc1ccc(-c2ccc3ncnc(Nc4ccc(OCc5cccc(F)c5)c(Cl)c4)c3c2)o1 [Lapatinib] (partner 2 µM)
Summed up: as §1

Compound in the assay “Obatoclax + Pemetrexed”: COC1=CC(c2cc3ccccc3[nH]2)=N/C1=C\c1[nH]c(C)cc1C [Obatoclax] + Nc1nc2[nH]cc(CCc3ccc(C(=O)N[C@@H](CCC(=O)O)C(=O)O)cc3)c2c(=O)[nH]1 [Pemetrexed] (partner 0.2 µM)
Summed up:
as §1

Turning to NCI-H650, the relative viability came out at 0.998 with Obatoclax + AZD7762 (first compound 0.01 µM); 0.925 in the assay with Obatoclax + AZD7762 (first compound 0.03162 µM); 0.513 with Obatoclax + AZD7762 (first compound 0.3162 µM); 0.324 with Obatoclax + AZD7762 (first compound 1 µM); 0.431 with Bortezomib + Phenformin (first compound 0.000632 µM); 0.461 in the assay with Bortezomib + Phenformin (first compound 0.002 µM). For the same cell line, the relative viability with Bortezomib + Phenformin (first compound 0.006325 µM) amounted to 0.38; in the assay with Bortezomib + Phenformin (first compound 0.02 µM) it was 0.203; in the assay with Obatoclax + Lapatinib (first compound 0.01 µM), 1.04; in the assay with Obatoclax + Lapatinib (first compound 0.03162 µM), 0.811; with Obatoclax + Lapatinib (first compound 0.1 µM), 0.438; in the assay with Obatoclax + Lapatinib (first compound 0.3162 µM), 0.511. The relative viability in the assay with Obatoclax + Lapatinib (first compound 1 µM) came out at 0.457; in the assay with Obatoclax + Pemetrexed (first compound 0.01 µM), 1.01; in the assay with Obatoclax + Pemetrexed (first compound 0.03162 µM), 0.86; with Obatoclax + Pemetrexed (first compound 0.3162 µM), 0.944; with Obatoclax + Pemetrexed (first compound 1 µM) it was 0.443.
